{"source": "EPA's ToxValDB 9.5 (doi:10.2903/j.efsa.2015.4194)", "key": {"[1]": {"tested_on": "Apis mellifera", "settings": "acute, duration: 48 hours, mortality"}, "[2]": {"tested_on": "Bibionidae", "settings": "chronic/long-term; duration: 28 days"}, "[3]": {"tested_on": "Canidae", "settings": "oral, Dog Other"}, "[4]": {"tested_on": "Colinus virginianus", "settings": "oral"}, "[5]": {"tested_on": "Daphnia magna", "settings": "chronic/long-term; duration: 21 days; reproduction"}, "[6]": {"tested_on": "Lepomis macrochirus", "settings": "acute; duration: 96 hours; mortality"}, "[7]": {"tested_on": "Oncorhynchus mykiss"}, "[8]": {"tested_on": "Rattus norvegicus"}, "[9]": {"tested_on": "Tagia sp.", "settings": "acute; duration: 14 days; mortality"}}}
{"smiles": "CC1(c2ccc(Oc3ccccc3)cc2)OC(=O)N(Nc2ccccc2)C1=O", "note": "(centres undefined) [Famoxadone]", "values": [{"measurement": "LD50", "setting": "[1]; dermal", "result": "> 25", "unit": "µg/piece"}, {"measurement": "LD50", "setting": "[1]; oral, unspecified", "result": "> 63", "unit": "µg/piece"}, {"measurement": "NOEC", "setting": "[2]", "result": 0.01, "unit": "mg/L"}, {"measurement": "NOAEL", "setting": "[3]; chronic, duration: 1 years, ophthalmoscopic examination", "result": 1.2, "unit": "mg/kg-day"}, {"measurement": "NOAEL", "setting": "[3]; subchronic, duration: 90 days, clinical signs", "result": 10, "unit": "mg/kg-day"}, {"measurement": "LD50", "setting": "[4]; acute, mortality", "result": "> 2250", "unit": "mg/kg-day"}, {"measurement": "NOEC", "setting": "[4]; short-term, diet", "result": 5620, "unit": "mg/kg-day"}, {"measurement": "NOEC", "setting": "[5]", "result": 0.0037, "unit": "mg/L"}, {"measurement": "LC50", "setting": "[6]", "result": 0.013, "unit": "µg/mL"}, {"measurement": "LC50", "setting": "[7]; acute, duration: 96 hours, mortality", "result": 0.011, "unit": "µg/mL"}, {"measurement": "NOEC", "setting": "[7]; chronic/long-term, duration: 90 days, growth", "result": 0.014, "unit": "mg/L"}, {"measurement": "LD50", "setting": "[8]; acute, mortality", "result": "> 5000", "unit": "mg/kg"}, {"measurement": "NOAEL", "setting": "[8]; developmental, development", "result": 11.3, "unit": "mg/kg-day"}, {"measurement": "LC50", "setting": "[9]", "result": 470, "unit": "mg/kg"}]}
